{
  "source": "patent US12247029B2",
  "about": "“Heterocyclic compounds as class II phosphoinositide 3-kinase inhibitors” (Forschungsverbund Berlin e.V., priority 2018, dated 2025)",
  "key": {"[1]": {"system": "HeLa cells overexpressing SNX9 AS", "assay": "SNX9 AS membrane recruitment / tubulation", "format": "cell-based", "settings": "eGFP-SNX9 AS OE HeLa cells, vs DMSO", "description": "(§1) FIG. 8. Inhibition of PI3KC2α in living cells upon treatment with C2a_inh1-3. (A) PI3KC2α inhibition impairs CCP dynamics analyzed by TIRF microscope. eGFP-clathrin expressing Cos7 cells were treated by DMSO or C2a_Inh3 for 1 h and imaged by TIRF microscope. […] (B) C2a_Inh3 treatment of eGFP-SNX9 AS OE HeLa cells. […] Scale bar, 10 μm or 2 μm (inset). (C) Quantification of the results depicted in B, indicating the percentage of cells containing membrane tubules (N=3, statistical analysis with one-way ANOVA, **** is for p<0.0001).\nSNX9 is a main effector protein of PI3KC2α dependent PI(3,4)P2 production. […] HeLa cells overexpressing SNX9 AS were treated with C2a_inh_3 or DMSO as a control."}, "PI3KC2α Δ1-298": {"molecular_target": "PI3KC2α Δ1-298 (Homo sapiens (Human), UniProt O00443)", "sequence (O00443 299-1686)": "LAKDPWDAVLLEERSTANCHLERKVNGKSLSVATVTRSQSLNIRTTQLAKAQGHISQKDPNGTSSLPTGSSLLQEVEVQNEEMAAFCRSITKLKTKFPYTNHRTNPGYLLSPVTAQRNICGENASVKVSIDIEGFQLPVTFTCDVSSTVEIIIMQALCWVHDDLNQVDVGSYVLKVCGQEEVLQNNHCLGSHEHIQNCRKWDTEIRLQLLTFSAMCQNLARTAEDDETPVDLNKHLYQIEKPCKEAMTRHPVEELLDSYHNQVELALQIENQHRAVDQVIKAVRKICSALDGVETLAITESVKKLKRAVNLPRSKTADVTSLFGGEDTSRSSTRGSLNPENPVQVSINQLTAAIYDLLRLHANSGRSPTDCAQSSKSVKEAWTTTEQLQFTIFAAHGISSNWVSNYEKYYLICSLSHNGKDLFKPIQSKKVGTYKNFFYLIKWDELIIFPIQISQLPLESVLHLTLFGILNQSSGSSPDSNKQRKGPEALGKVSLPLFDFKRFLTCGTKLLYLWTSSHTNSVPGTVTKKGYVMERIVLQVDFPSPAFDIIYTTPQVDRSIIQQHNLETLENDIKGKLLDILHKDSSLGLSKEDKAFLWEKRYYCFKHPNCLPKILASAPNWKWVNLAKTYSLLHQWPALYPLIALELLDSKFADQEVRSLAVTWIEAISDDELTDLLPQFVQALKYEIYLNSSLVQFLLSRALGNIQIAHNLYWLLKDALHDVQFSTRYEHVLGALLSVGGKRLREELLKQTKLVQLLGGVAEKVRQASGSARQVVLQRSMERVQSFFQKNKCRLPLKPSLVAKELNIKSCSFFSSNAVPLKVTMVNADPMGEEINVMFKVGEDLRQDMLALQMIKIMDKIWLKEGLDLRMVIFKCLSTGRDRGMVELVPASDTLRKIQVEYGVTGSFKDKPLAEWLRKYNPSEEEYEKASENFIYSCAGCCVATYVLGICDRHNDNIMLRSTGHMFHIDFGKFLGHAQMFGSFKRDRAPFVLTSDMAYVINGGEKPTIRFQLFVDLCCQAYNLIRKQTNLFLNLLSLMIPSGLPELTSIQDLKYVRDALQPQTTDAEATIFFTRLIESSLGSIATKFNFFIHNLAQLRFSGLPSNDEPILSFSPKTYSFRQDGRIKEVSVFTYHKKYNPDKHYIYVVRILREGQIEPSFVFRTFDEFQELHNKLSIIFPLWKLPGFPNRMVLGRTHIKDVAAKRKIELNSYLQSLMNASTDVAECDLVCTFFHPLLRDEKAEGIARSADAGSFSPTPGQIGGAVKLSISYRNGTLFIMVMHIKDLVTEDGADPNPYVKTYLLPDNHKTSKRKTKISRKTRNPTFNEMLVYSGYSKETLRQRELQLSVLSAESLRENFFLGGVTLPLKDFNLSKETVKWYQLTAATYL", "assay": "ADP-Glo kinase assay with purified PI3KC2α Δ1-298", "format": "biochemical", "method_in_brief": "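Purified human PI3KC2α Δ1-298 (10 ng/μl) with liver PI (200 μM) and ATP (40 μM), 20 min kinase reaction; ADP formed read by ADP-Glo luminescence after 40 min ATP depletion. Screening compounds at 10 μM; reactions lacking PI served as negative control.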"}, "[2]": {"system": "eGFP-clathrin expressing Cos7 cells", "assay": "CCP dynamics by TIRF microscopy", "format": "cell-based", "settings": "treatment for 1 h, vs DMSO", "description": "as §1\nTo test if the validated compounds are cell membrane permeable and, thus, can be used as medicaments and in cell-based experiments, the inventors analyzed clathrin-mediated endocytosis of transferrin in the presence of PI3KC2α inhibitors or DMSO as a solvent control. […] Further, the inventors monitored the CCP dynamics in cells with PI3KC2α inhibitor (C2a_Inh3) treatment for 1 h."}, "[3]": {"system": "commercially available lipid kinases and the related mTOR protein kinase", "assay": "In vitro kinase profiling at fixed 10 μM (lipid kinase panel, mTOR, general kinase panel)", "format": "biochemical", "settings": "10 μM compound; listed as C2a_Inh3", "description": "FIG. 7. In vitro kinase activity in presence of 10 μM compounds. (A-C) The specificity of initial screening hits and C2a_inh1-3 was validated by incubation with available lipid kinases. […] (D) Selectivity may be modulated by modifying the R11 substituent of Formula 1. […]\nWe firstly analyzed the specificity of C2a_inh1 (dihydropteridinone derived compound) and other initial screening hits (eg. quinolone derived compound) in vitro. […]"}},
  "note": "pIC50: −log10 of the molar value. Entries after “also recorded” stand apart in the source; their conditions may differ. Where two headings read alike, the source gives them in different places.",
  "data": [
    {"smiles": "O=C(CSc1nc2nccnc2c(=O)n1CCc1ccccc1)Nc1nccs1", "note": "[Example Compound 11, 2-((4-Oxo-3-phenethyl-3,4-dihydropteridin-2-yl)thio)-N-(thiazol-2-yl)acetamide]", "values": [
      {"measurement": "SNX9 AS recruitment to membrane / membrane tubules", "setting": "[1]; listed as C2a_Inh3", "value": "reduced the recruitment of SNX9 to the membrane"},
      {"measurement": "SNX9 AS recruitment to membrane / membrane tubules", "setting": "[1]; listed as C2a_inh_3", "value": "remained largely cytosolic"},
      {"measurement": "pIC50", "setting": "PI3KC2α Δ1-298; listed as C2a_Inh3, read-out: IC50 for PI3KC2α inhibition", "value": 7.00},
      {"measurement": "pIC50", "setting": "PI3KC2α Δ1-298; read-out: IC50 (PI3KC2α; ADP-Glo™ assay)", "value": 7.00},
      {"measurement": "CCP lifetime (CCP dynamics)", "setting": "[2]; listed as C2a_Inh3", "value": "increased CCP-lifetimes"},
      {"measurement": "CCP lifetime (CCP dynamics)", "setting": "[2]; listed as C2a_Inh_3", "value": "increase of lifetime"},
      {"measurement": "specificity in kinase panel", "setting": "[3]", "value": "specifically inhibited class II PI3Ks; also recorded: relatively high off-targeting activity towards other class II kinase isoforms"}
    ]}
  ]
}
